According to patent publication US8344028B2, “Gamma-amino-butyric acid derivatives as GABAB receptor ligands” (XenoPort, Inc., priority 2009, dated 2013):

Target: GABAB receptor (Homo sapiens, UniProt Q9UBS5)
Assay: GABAB receptor agonist or partial agonist activity by binding, electrophysiology, cAMP and/or Ca2+ assay methods (Examples 83-86)
Assay type: cell-based
Protocol: An assay using rat cerebral cortex membranes was used to determine the affinity of GABAB receptor ligands for the GABAB receptor.
An assay buffer of 50 mM Tris pH 7.4 was prepared with 100 μM of isoguvacine, to block GABAA interactions. The assay buffer with isoguvacine was used for dilution of membranes, compounds, and radiolabel.
Rat cerebral cortex membranes were diluted in assay buffer at 1 mg/mL and aliquoted into a 96-well plate at 900 μL/well. Buffer or test compound were added at 20-times final concentration in the buffer at 50 μL/well. Membranes and test compounds or buffer were incubated for 10 min. at room temperature. Radiolableled [S—(R*,R*)]-[3-[[1-(3,4-dichlorophenyl)ethyl]amino]-2-hydroxypropyl](cyclohexylmethyl) phosphinic acid (CGP54626) was then added at 50 μL/well in the buffer at 1-10 nM concentration in 50 μl. […] The assay mixture was filtered using Brandell filtration apparatus and GFB filters, washed twice with 3 mL of 4° C., 50 mM Tris pH 7.4, buffer without isoguvacine. The filters were then dried at room temperature and the dried filters punched out and placed in individual vials. Three (3) mL of scintillation fluid was added to each vial and the radiolabel counted on the scintillation counter. The inverse amount of radiolabel was indicative of binding of a test compound to the GABAB receptor.
The following procedure was used to determine the level of intracellular cAMP. Recombinant HEK cells expressing the GABAB R1a2 receptor were used in the experiments. cAMP levels were measured using a cAMP XS^+ HitHunter™ Chemiluminescence Assay Kit (90-0075-02, GE Healthcare Biosciences Corp.). Cells were seeded overnight at 5,000 cells per well, in black, clear bottom 96-well plates. The following morning, cells were washed twice with 100 μL PBS per well. Forskolin was weighed out and dissolved in DMSO to a final concentration 100 mM. One-hundred (100) μM forskolin solutions were prepared in PBS with and without test compound at 1-times final concentration. Thirty (30) μL of the test solutions were added to the wells and incubated for 1 h at room temperature. The cAMP concentration was determined according to the protocol described in the cAMP assay kit, maintaining the plate at room temperature and in the dark. […] Each well was read for 6 seconds. The untransformed data was then analyzed.
The following procedure was used to determine the GABAB receptor agonist activity of a compound as reflected by activation of Ca^2+ signaling. HEK TREx cells expressing GABABR1a2 under tetracycline induction control, and Gqi chimeric protein (expressed constitutively), allowing GABABR coupling through the Ca^2+ signaling pathway were used in the experiments.
Cells were seeded in media containing tetracycline overnight at 100,000 cells/well, in black, clear-bottom, 96-well plates. The following morning, cells were washed twice with 100 μL HBSS buffer per well. Fluorescent Ca^2+ indicator dye was prepared using the materials and procedure described in the F362056 Fluo-4 NW Calcium Assay Kit (Invitrogen, Carlsbad, Calif.). Ten (10) mL of kit buffer and 100 μl of kit Probenecid were added to individual kit dye vials, and rolled back and forth several times to dissolve the dye. Cells were then loaded into the dye solution at 50 μL per well. The cells and dye were incubated for 30 min at 37° C., and then incubated for an additional 30 min at room temperature in the dark. Test compounds are dissolved in HBSS buffer at twice final concentration. Duplicate wells were used for each unique condition. Solution containing the test compound was added to the wells using a FLEXStation II (Molecular Devices, Sunnyvale, Calif.). Using the instrument in kinetic mode in which each well was read every 2 sec over a total collection time of 50 sec fluorescence was measured using an excitation wavelength 494 nm and a detection wavelength of 516 nm. A normalized fluorescence value for each well was calculated using the following procedure.

Sequence of GABAB receptor (Q9UBS5 20-961): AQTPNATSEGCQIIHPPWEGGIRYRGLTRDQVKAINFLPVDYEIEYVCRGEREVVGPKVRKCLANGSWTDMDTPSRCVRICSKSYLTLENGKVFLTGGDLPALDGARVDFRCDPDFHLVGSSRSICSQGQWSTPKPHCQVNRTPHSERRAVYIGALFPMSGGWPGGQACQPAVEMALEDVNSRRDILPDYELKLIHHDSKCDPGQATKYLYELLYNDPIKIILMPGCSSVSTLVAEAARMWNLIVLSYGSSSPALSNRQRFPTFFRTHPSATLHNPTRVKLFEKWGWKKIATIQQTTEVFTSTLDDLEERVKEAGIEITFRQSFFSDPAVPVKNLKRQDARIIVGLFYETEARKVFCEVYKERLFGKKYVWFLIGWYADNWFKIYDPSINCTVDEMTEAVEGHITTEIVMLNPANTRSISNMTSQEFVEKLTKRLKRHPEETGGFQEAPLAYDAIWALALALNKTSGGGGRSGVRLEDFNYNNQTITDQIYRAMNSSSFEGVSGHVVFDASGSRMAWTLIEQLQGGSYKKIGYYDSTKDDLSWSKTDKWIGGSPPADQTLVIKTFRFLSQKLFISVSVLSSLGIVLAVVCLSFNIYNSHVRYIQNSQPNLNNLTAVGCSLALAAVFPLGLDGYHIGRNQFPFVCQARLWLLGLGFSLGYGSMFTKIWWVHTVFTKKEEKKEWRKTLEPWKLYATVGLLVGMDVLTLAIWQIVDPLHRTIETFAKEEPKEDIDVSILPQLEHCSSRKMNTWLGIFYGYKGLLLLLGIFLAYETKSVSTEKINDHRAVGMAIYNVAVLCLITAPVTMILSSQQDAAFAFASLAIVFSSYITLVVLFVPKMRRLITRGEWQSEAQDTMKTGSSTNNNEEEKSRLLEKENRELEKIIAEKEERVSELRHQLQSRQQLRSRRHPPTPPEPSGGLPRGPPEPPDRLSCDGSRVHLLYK
Sequence of GABAB receptor (O75899 42-941 partner): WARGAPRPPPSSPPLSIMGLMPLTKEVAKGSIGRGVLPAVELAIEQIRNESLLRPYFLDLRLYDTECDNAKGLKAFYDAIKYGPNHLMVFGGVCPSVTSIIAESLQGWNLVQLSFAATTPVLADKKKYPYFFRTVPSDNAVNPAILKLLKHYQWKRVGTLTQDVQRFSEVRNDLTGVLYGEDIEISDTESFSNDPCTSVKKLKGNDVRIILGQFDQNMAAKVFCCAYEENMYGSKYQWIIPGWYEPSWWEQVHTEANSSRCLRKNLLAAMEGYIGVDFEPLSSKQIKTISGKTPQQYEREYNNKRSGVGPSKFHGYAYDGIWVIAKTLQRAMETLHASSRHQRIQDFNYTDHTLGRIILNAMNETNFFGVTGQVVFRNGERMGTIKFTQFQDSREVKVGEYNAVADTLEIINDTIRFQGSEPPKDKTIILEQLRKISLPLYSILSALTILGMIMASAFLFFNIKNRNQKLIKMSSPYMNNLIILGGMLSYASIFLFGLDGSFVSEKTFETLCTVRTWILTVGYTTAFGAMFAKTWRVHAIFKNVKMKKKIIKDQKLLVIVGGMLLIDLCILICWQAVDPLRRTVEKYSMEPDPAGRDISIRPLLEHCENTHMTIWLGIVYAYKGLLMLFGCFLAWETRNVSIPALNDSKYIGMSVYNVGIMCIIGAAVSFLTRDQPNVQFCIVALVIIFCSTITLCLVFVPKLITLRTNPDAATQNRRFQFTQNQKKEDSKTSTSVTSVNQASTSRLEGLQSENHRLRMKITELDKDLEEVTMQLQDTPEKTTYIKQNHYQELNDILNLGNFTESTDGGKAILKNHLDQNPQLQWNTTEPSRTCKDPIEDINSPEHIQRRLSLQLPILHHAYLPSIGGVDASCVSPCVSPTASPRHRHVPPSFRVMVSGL

GABAB receptor agonist or partial agonist activity	Compound
agonist or partial agonist activity	CN(C)c1cccc(-c2cc([C@H](CN)CC(=O)O)ccc2Cl)n1.Cl [(3R)-4-amino-3-{3-[6-(dimethylamino)(2-pyridyl)]-4-chlorophenyl}butanoic acid hydrochloride]
agonist or partial agonist activity	Cc1cc(C(=O)Nc2cc([C@H](CN)CC(=O)O)ccc2Cl)n(C)n1 [(3R)-4-amino-3-{3-[(1,3-dimethylpyrazol-5-yl)carbonylamino]-4-chlorophenyl}butanoic acid]
agonist or partial agonist activity	NC[C@H](CC(=O)O)c1ccc(Cl)c(-c2cncc(C(F)(F)F)c2)c1 [(3R)-4-amino-3-{4-chloro-3-[5-(trifluoromethyl)(3-pyridyl)]phenyl}butanoic acid]
agonist or partial agonist activity	Cl.N#Cc1ccccc1COc1cc([C@H](CN)CC(=O)O)ccc1Cl [(3R)-4-amino-3-{4-chloro-3-[(2-cyanophenyl)methoxy]phenyl}butanoic acid hydrochloride]
agonist or partial agonist activity	Cl.NC[C@H](CC(=O)O)c1ccc(Cl)c(NCc2ccco2)c1 [(3R)-4-amino-3-{4-chloro-3-[(2-furylmethyl)amino]phenyl}butanoic acid hydrochloride]
agonist or partial agonist activity	NC[C@H](CC(=O)O)c1ccc(Cl)c(NCCc2ccccc2)c1 [(3R)-4-amino-3-{4-chloro-3-[(2-phenylethyl)amino]phenyl}butanoic acid]
agonist or partial agonist activity	Cl.NC[C@H](CC(=O)O)c1ccc(Cl)c(NS(=O)(=O)c2ccccn2)c1 [(3R)-4-amino-3-{4-chloro-3-[(2-pyridylsulfonyl)amino]phenyl}butanoic acid hydrochloride]
agonist or partial agonist activity	N#Cc1cccc(C(=O)Nc2cc([C@H](CN)CC(=O)O)ccc2Cl)c1 [(3R)-4-amino-3-{4-chloro-3-[(3-cyanophenyl)carbonylamino]phenyl}butanoic acid]
agonist or partial agonist activity	Cl.N#Cc1cccc(COc2cc([C@H](CN)CC(=O)O)ccc2Cl)c1 [(3R)-4-amino-3-{4-chloro-3-[(3-cyanophenyl)methoxy]phenyl}butanoic acid hydrochloride]
agonist or partial agonist activity	NC[C@H](CC(=O)O)c1ccc(Cl)c(NC(=O)c2cccc(F)c2)c1 [(3R)-4-amino-3-{4-chloro-3-[(3-fluorophenyl)carbonylamino]phenyl}butanoic acid]
agonist or partial agonist activity	Cl.NC[C@H](CC(=O)O)c1ccc(Cl)c(Cc2cccc([N+](=O)[O-])c2)c1 [(3R)-4-amino-3-{4-chloro-3-[(3-nitrophenyl)methyl]phenyl}butanoic acid hydrochloride]
agonist or partial agonist activity	NC[C@H](CC(=O)O)c1ccc(Cl)c(NCc2cccnc2)c1 [(3R)-4-amino-3-{4-chloro-3-[(3-pyridylmethyl)amino]phenyl}butanoic acid]
agonist or partial agonist activity	Cl.N#Cc1ccc(COc2cc([C@H](CN)CC(=O)O)ccc2Cl)cc1 [(3R)-4-amino-3-{4-chloro-3-[(4-cyanophenyl)methoxy]phenyl}butanoic acid hydrochloride]
agonist or partial agonist activity	NC[C@H](CC(=O)O)c1ccc(Cl)c(NC(=O)c2ccc([N+](=O)[O-])cc2)c1 [(3R)-4-amino-3-{4-chloro-3-[(4-nitrophenyl)carbonylamino]phenyl}butanoic acid]
agonist or partial agonist activity	CN(Cc1ccccc1)c1cc([C@H](CN)CC(=O)O)ccc1Cl.Cl [(3R)-4-amino-3-{4-chloro-3-[methylbenzylamino]phenyl}butanoic acid hydrochloride]
agonist or partial agonist activity	Cl.NC[C@@H](CC(=O)O)c1ccc(Cl)c(-c2cccnc2)c1 [(3S)-4-amino-3-(4-chloro-3-(3-pyridyl)phenyl)butanoic acid hydrochloride]
agonist or partial agonist activity	Cl.N#Cc1cccc(-c2cc([C@@H](CN)CC(=O)O)ccc2Cl)c1 [(3S)-4-amino-3-[4-chloro-3-(3-cyanophenyl)phenyl]butanoic acid hydrochloride]
agonist or partial agonist activity	Cl.NC[C@@H](CC(=O)O)c1ccc(Cl)c(NCc2ccncc2)c1 [(3S)-4-amino-3-{4-chloro-3-[(4-pyridylmethyl)amino]phenyl}butanoic acid hydrochloride]
agonist or partial agonist activity	Cl.NC[C@H](CC(=O)O)c1ccc(Cl)cc1-c1cccnc1 [Example 8, (3R)-4-Amino-3-[4-chloro-2-(3-pyridyl)phenyl]butanoic acid hydrochloride]
agonist or partial agonist activity	Cl.NC[C@H](CC(=O)O)c1ccc(Cl)cc1C(=O)c1ccccc1 [Example 11, (3R)-4-Amino-3-[4-chloro-2-(phenylcarbonyl)phenyl]butanoic acid hydrochloride]
agonist or partial agonist activity	NC[C@H](CC(=O)O)c1ccc(Cl)c(Nc2ccccc2C(=O)O)c1 [Example 13, 2-({5-[(1R)-2-Amino-1-(carboxymethyl)ethyl]-2-chlorophenyl}amino)benzoic acid]
agonist or partial agonist activity	NC[C@H](CC(=O)O)c1ccc(Cl)c(Oc2cccc(C(=O)O)c2)c1 [Example 22, 3-{5-[(1R)-2-Amino-1-(carboxymethyl)ethyl]-2-chlorophenoxy}benzoic acid]
agonist or partial agonist activity	Cl.NC[C@H](CC(=O)O)c1ccc(Cl)c(-c2ccc(C(=O)O)cc2)c1 [Example 24, 4-{5-[(1R)-2-Amino-1-(carboxymethyl)ethyl]-2-chlorophenyl}benzoic acid hydrochloride]
agonist or partial agonist activity	Cl.NC[C@H](CC(=O)O)c1ccc(Cl)c(-c2cccc(CO)c2)c1 [Example 28, (3R)-4-Amino-3-{4-chloro-3-[3-(hydroxymethyl)phenyl]phenyl}butanoic acid hydrochloride]
agonist or partial agonist activity	Cc1ncc(-c2cc([C@H](CN)CC(=O)O)ccc2Cl)cn1.Cl [Example 30, (3R)-4-Amino-3-[4-chloro-3-(2-methylpyrimidin-5-yl)phenyl]butanoic acid hydrochloride]
agonist or partial agonist activity	Cl.NC[C@H](CC(=O)O)c1ccc(Cl)c(-c2cccc(O)c2)c1 [Example 34, (3R)-4-Amino-3-[4-chloro-3-(3-hydroxyphenyl)phenyl]butanoic acid hydrochloride]
agonist or partial agonist activity	COc1cccc(-c2cc([C@H](CN)CC(=O)O)ccc2Cl)c1.Cl [Example 35, (3R)-4-Amino-3-[4-chloro-3-(3-methoxyphenyl)phenyl]butanoic acid hydrochloride]
